IC50 data for 16 molecules are collected here from patent US20160046618A1, “Cyclopropyl Fused Thiazin-2-Amine Compounds as Beta-Secretase Inhibitors and Methods of Use” (AMGEN INC., priority 2014, published 2016).

SMILES strings stand for the structures.

Test [1] has as its target human recombinant BACE1 (Homo sapiens (Human), UniProt P56817). Kind of test: In vitro enzymatic BACE1 FRET assay. The note with it: read-out: IC50 IP (μM) BACE1 enzyme. The class given is biochemical. An outline of the steps:
(§1)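 Protease purified by Ni-NTA chromatography; start with FRET substrate (50 nM); incubate 1 h; quench with Tris to neutral pH; read fluorescence ex 488 / em 590 nm.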

Test [2] deals with Recombinant Cat D (Homo sapiens (Human), UniProt P07339). Kind of test: In vitro enzymatic Cathepsin D (Cat D) FRET assay. The class given is biochemical. The note with it: read-out: IC50 IP (μM) CatD. An outline of the steps:
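Cleavage of a 20 nM fluorophore/quencher peptide by CHO-expressed recombinant Cat D proceeded for one hour at pH 3.5 (0.05 M citrate, 5 mM CHAPS, 10% DMSO final). Tris addition neutralized the pH to end the reaction. Fluorescence was then measured (ex 500 nm/em 580 nm).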

The target in test [3] is human recombinant BACE2 (Homo sapiens (Human), UniProt Q9Y5Z0). Kind of test: In vitro enzymatic BACE2 FRET assay. The note with it: read-out: IC50 IP (μM) BACE2 enzyme. The class given is biochemical. A digest of the protocol: as §1
Test [4] deals with Aβ40 in conditioned medium of cells stably expressing Amyloid Precursor Protein (APP). Put plainly: In vitro BACE-1 cell-based assay (Aβ40 sandwich ELISA). Conditions: read-out: IC50 IP (μM) BACE1 cell. A digest of the protocol: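 APP-expressing cells treated 24 h at 37 °C with compound in 10-point dose response (top 100 μM or 10 μM, 0.1% DMSO final). Secreted Aβ40 in conditioned medium quantified by sandwich ELISA (pAb40 capture, biotinylated 6E10 detection, time-resolved europium fluorescence); IC50 from percent inhibition versus concentration.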

human recombinant BACE1, sequence (P56817 46-501): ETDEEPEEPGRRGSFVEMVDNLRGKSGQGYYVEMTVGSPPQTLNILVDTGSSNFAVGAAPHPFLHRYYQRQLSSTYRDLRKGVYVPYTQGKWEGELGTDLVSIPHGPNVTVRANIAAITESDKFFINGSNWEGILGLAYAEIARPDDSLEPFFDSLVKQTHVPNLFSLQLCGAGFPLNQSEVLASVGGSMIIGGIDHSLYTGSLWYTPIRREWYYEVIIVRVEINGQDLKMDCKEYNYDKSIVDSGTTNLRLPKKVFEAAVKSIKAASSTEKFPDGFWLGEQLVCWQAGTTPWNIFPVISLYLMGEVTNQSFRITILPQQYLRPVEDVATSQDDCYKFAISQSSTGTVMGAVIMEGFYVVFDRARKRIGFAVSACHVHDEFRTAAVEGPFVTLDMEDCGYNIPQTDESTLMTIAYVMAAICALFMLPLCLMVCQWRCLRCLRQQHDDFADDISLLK
Recombinant Cat D, sequence (P07339 65-412): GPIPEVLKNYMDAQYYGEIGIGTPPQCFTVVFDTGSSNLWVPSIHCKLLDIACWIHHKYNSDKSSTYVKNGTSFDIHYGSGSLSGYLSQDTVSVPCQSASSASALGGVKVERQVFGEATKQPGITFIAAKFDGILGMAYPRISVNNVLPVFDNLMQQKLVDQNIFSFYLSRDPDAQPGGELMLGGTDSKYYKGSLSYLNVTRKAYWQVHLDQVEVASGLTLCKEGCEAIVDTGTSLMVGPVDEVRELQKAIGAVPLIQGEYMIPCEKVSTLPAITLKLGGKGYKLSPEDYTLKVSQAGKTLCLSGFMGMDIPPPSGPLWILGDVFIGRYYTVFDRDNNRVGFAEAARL
human recombinant BACE2, sequence (Q9Y5Z0 63-518): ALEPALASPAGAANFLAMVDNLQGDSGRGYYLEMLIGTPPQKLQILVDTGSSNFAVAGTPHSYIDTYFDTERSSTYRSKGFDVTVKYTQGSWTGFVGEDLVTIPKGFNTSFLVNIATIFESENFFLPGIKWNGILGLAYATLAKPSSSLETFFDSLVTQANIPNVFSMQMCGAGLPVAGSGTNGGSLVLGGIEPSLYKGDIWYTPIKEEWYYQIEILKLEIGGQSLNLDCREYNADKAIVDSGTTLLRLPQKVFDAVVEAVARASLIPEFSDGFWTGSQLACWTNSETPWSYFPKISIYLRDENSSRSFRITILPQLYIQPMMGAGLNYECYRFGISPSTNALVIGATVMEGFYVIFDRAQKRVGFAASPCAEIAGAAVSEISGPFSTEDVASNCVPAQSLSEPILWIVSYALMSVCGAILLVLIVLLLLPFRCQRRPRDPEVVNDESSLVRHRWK

Regarding `CC(C)Oc1cnc2c(Nc3cc(F)c(F)c([C@@]4(C)N=C(N)S[C@@]5(C(F)F)C[C@@H]45)c3)nccc2n1` [Example 876, N-(3-((1S,5S,6S)-3-amino-1-(difluoromethyl)-5-methyl-2-thia-4-azabicyclo[4.1.0]hept-3-en-5-yl)-4,5-difluorophenyl)-2-(1-methylethoxy)pyrido[3,4-b]pyrazin-5-amine], the IC50 – broadly, the point on the concentration scale where inhibition reaches its midpoint – in test [1] came to 0.0801 µM; in test [2], 223 µM; in test [3], 0.912 µM; in test [4], 0.587 µM.

As to `Cc1nnc(COc2cnc3c(Nc4cc(F)c(F)c([C@@]5(C)N=C(N)S[C@@]6(C(F)F)C[C@@H]56)c4)nccc3n2)o1` [Example 877, N-(3-((1S,5S,6S)-3-amino-1-(difluoromethyl)-5-methyl-2-thia-4-azabicyclo[4.1.0]hept-3-en-5-yl)-4,5-difluorophenyl)-2-((5-methyl-1,3,4-oxadiazol-2-yl)methoxy)pyrido[3,4-b]pyrazin-5-amine], the IC50 in test [1] is 0.011 µM; in test [2], 343 µM; in test [3] it was 0.338 µM; in test [4] it was 0.0294 µM.

For `CN(C)C(=O)COc1cnc2c(Nc3cc(F)c(F)c([C@@]4(C)N=C(N)S[C@@]5(C(F)F)C[C@@H]45)c3)nccc2n1` [Example 878, 2-((5-((3-((1S,5S,6S)-3-amino-1-(difluoromethyl)-5-methyl-2-thia-4-azabicyclo[4.1.0]hept-3-en-5-yl)-4,5-difluorophenyl)amino)pyrido[3,4-b]pyrazin-2-yl)oxy)-N,N-dimethylacetamide], the IC50 in test [1] was found to be 0.231 µM; in test [2], 171 µM; in test [3], 0.353 µM; in test [4], 1.07 µM.

Turning to `C#C[C@H](C)Oc1cnc2c(Nc3ccc(F)c([C@@]4(CF)N=C(N)S[C@@]5(CF)C[C@H]54)c3)nccc2n1` [Example 879, N-(3-((1S,5S,6S)-3-amino-1,5-bis(fluoromethyl)-2-thia-4-azabicyclo[4.1.0]hept-3-en-5-yl)-4-fluorophenyl)-2-(((1S)-1-methyl-2-propyn-1-yl)oxy)pyrido[3,4-b]pyrazin-5-amine], the IC50 in test [1] turned out to be 0.00107 µM; in test [2], 2690 µM; in test [3] it was 0.282 µM; in test [4], 0.0179 µM.

On to `Cc1noc(COc2cnc3c(Nc4ccc(F)c([C@@]5(CF)N=C(N)S[C@@]6(CF)C[C@H]65)c4)nccc3n2)n1` [Example 880, N-(3-((1S,5S,6S)-3-amino-1,5-bis(fluoromethyl)-2-thia-4-azabicyclo[4.1.0]hept-3-en-5-yl)-4-fluorophenyl)-2-((3-methyl-1,2,4-oxadiazol-5-yl)methoxy)pyrido[3,4-b]pyrazin-5-amine], for which the IC50 in test [1] worked out at 0.00452 µM; in test [2], 1110 µM; in test [3], 0.27 µM; in test [4], 0.0193 µM.

Consider `COC[C@]12C[C@H]1[C@@](C)(c1cc(Nc3nccc4nc(OCc5ncccn5)cnc34)cc(F)c1F)N=C(N)S2` [Example 881, N-(3-((1S,5S,6S)-3-amino-1-(methoxymethyl)-5-methyl-2-thia-4-azabicyclo[4.1.0]hept-3-en-5-yl)-4,5-difluorophenyl)-2-(2-pyrimidinylmethoxy)pyrido[3,4-b]pyrazin-5-amine], for which the IC50 in test [1] was determined as 0.00936 µM; in test [2], 349 µM; in test [3] it was 0.14 µM; in test [4] it was 0.00819 µM.

`COC[C@]12C[C@H]1[C@@](C)(c1cc(Nc3nccc4nc(OCc5nc(C)no5)cnc34)cc(F)c1F)N=C(N)S2` [Example 882, N-(3-((1S,5S,6S)-3-amino-1-(methoxymethyl)-5-methyl-2-thia-4-azabicyclo[4.1.0]hept-3-en-5-yl)-4,5-difluorophenyl)-2-((3-methyl-1,2,4-oxadiazol-5-yl)methoxy)pyrido[3,4-b]pyrazin-5-amine]: the half-inhibitory concentration (IC50) in test [1] was found to be 0.00778 µM; in test [2], 911 µM; in test [3], 0.381 µM; in test [4], 0.0204 µM.

Turning to `Cc1nc(COc2cnc3c(Nc4cc(F)c(F)c([C@@]5(C)N=C(N)S[C@@]6(C(F)F)C[C@@H]56)c4)nccc3n2)no1` [Example 883, N-(3-((1S,5S,6S)-3-amino-1-(difluoromethyl)-5-methyl-2-thia-4-azabicyclo[4.1.0]hept-3-en-5-yl)-4,5-difluorophenyl)-2-((5-methyl-1,2,4-oxadiazol-3-yl)methoxy)pyrido[3,4-b]pyrazin-5-amine], the IC50 in test [1] worked out at 0.000316 µM; in test [2], 363 µM; in test [3], 0.091 µM; in test [4], 0.0133 µM.

For `C[C@]1(c2cc(Nc3nccc4nc(OCc5ncccn5)cnc34)cc(F)c2F)N=C(N)S[C@@]2(C(F)F)C[C@@H]12` [Example 884, N-(3-((1S,5S,6S)-3-amino-1-(difluoromethyl)-5-methyl-2-thia-4-azabicyclo[4.1.0]hept-3-en-5-yl)-4,5-difluorophenyl)-2-(2-pyrimidinylmethoxy)pyrido[3,4-b]pyrazin-5-amine], the 50% inhibitory concentration (IC50) is 0.00427 µM in test [1], over 400 µM in test [2], 0.13 µM in test [3] and 0.0119 µM in test [4].

Consider `COC[C@]12C[C@H]1[C@@](C)(c1cc(Nc3nccc4nc(OCc5noc(C)n5)cnc34)cc(F)c1F)N=C(N)S2` [Example 885, N-(3-((1S,5S,6S)-3-amino-1-(methoxymethyl)-5-methyl-2-thia-4-azabicyclo[4.1.0]hept-3-en-5-yl)-4,5-difluorophenyl)-2-((5-methyl-1,2,4-oxadiazol-3-yl)methoxy)pyrido[3,4-b]pyrazin-5-amine], for which the IC50 in test [1] turned out to be 0.00223 µM; in test [2], 592 µM; in test [3], 0.143 µM; in test [4], 0.00823 µM.

Regarding `Cc1nc(COc2cnc3c(Nc4cc(F)c(F)c([C@@]5(C)N=C(N)S[C@@]6(C(F)F)C[C@@H]56)c4)nccc3n2)c(C)o1` [Example 886, N-(3-((1S,5S,6S)-3-amino-1-(difluoromethyl)-5-methyl-2-thia-4-azabicyclo[4.1.0]hept-3-en-5-yl)-4,5-difluorophenyl)-2-((2,5-dimethyl-1,3-oxazol-4-yl)methoxy)pyrido[3,4-b]pyrazin-5-amine], the IC50 in test [1] was determined as 0.0011 µM; in test [2], 136 µM; in test [3] it was 0.0278 µM; in test [4], 0.0411 µM.

For the molecule `Cc1noc(COc2cnc3c(Nc4cc(F)c(F)c([C@@]5(C)N=C(N)S[C@@]6(C(F)F)C[C@@H]56)c4)nccc3n2)n1` [Example 887, N-(3-((1S,5S,6S)-3-amino-1-(difluoromethyl)-5-methyl-2-thia-4-azabicyclo[4.1.0]hept-3-en-5-yl)-4,5-difluorophenyl)-2-((3-methyl-1,2,4-oxadiazol-5-yl)methoxy)pyrido[3,4-b]pyrazin-5-amine], the IC50 in test [1] is 0.00295 µM; in test [2] it was over 400 µM; in test [3], 0.317 µM; in test [4] it was 0.0442 µM.

On to `Cc1cnc(COc2cnc3c(Nc4cc(F)c(F)c([C@@]5(C)N=C(N)S[C@@]6(C(F)F)C[C@@H]56)c4)nccc3n2)o1` [Example 888, N-(3-((1S,5S,6S)-3-amino-1-(difluoromethyl)-5-methyl-2-thia-4-azabicyclo[4.1.0]hept-3-en-5-yl)-4,5-difluorophenyl)-2-((5-methyl-1,3-oxazol-2-yl)methoxy)pyrido[3,4-b]pyrazin-5-amine], for which the 50% inhibitory concentration (IC50) worked out at 0.00209 µM in test [1], 71.9 µM in test [2], 0.0581 µM in test [3] and 0.0218 µM in test [4].

In the case of `Cc1nnc(COc2cnc3c(Nc4cc(F)c(F)c([C@@]5(C)N=C(N)S[C@@]6(C(F)F)C[C@@H]56)c4)nccc3n2)s1` [Example 889, N-(3-((1S,5S,6S)-3-amino-1-(difluoromethyl)-5-methyl-2-thia-4-azabicyclo[4.1.0]hept-3-en-5-yl)-4,5-difluorophenyl)-2-((5-methyl-1,3,4-thiadiazol-2-yl)methoxy)pyrido[3,4-b]pyrazin-5-amine], the half-inhibitory concentration (IC50) in test [1] was 0.0418 µM; in test [2] it was 306 µM; in test [3], 1.41 µM; in test [4], 0.252 µM.

Take `C[C@@H](Oc1cnc2c(Nc3cc(F)c(F)c([C@@]4(C)N=C(N)S[C@@]5(C(F)F)C[C@@H]45)c3)nccc2n1)c1ncco1` [Example 891, N-(3-((1S,5S,6S)-3-amino-1-(difluoromethyl)-5-methyl-2-thia-4-azabicyclo[4.1.0]hept-3-en-5-yl)-4,5-difluorophenyl)-2-((1 R)-1-(1,3-oxazol-2-yl)ethoxy)pyrido[3,4-b]pyrazin-5-amine]: the IC50 in test [1] worked out at 0.177 µM; in test [2] it was 984 µM; in test [3], 1.09 µM; in test [4], 2.88 µM.

For the molecule `C[C@H](Oc1cnc2c(Nc3cc(F)c(F)c([C@@]4(C)N=C(N)S[C@@]5(C(F)F)C[C@@H]45)c3)nccc2n1)c1ncco1` [Example 892, N-(3-((1S,5S,6S)-3-amino-1-(difluoromethyl)-5-methyl-2-thia-4-azabicyclo[4.1.0]hept-3-en-5-yl)-4,5-difluorophenyl)-2-((1 S)-1-(1,3-oxazol-2-yl)ethoxy)pyrido[3,4-b]pyrazin-5-amine], the half-maximal inhibitory concentration (IC50) in test [1] was 0.00278 µM; in test [2] it was 873 µM; in test [3], 0.848 µM; in test [4], 0.056 µM.
